Active and inactive are the calls of the source. The rule behind the calls is not given here.
Assays:
[1] = molecular target: Prolyl endopeptidase (Mus musculus) (UniProt Q9QUR6); assay: in situ PREP and ABHD6 off-target inhibition, dose response, selectivity assay for PME-1 inhibitor project, cell-based, fluorescence, gel-based ABPP (AID 588835); settings: in situ gel-based competitive ABPP, PREP, IC50, second panel column
[2] = molecular target: Monoacylglycerol lipase ABHD6 (Mus musculus) (UniProt Q8R2Y0); assay: as above; settings: in situ gel-based competitive ABPP
Monoacylglycerol lipase ABHD6 (Mus musculus), sequence (Q8R2Y0 whole entry, looked up): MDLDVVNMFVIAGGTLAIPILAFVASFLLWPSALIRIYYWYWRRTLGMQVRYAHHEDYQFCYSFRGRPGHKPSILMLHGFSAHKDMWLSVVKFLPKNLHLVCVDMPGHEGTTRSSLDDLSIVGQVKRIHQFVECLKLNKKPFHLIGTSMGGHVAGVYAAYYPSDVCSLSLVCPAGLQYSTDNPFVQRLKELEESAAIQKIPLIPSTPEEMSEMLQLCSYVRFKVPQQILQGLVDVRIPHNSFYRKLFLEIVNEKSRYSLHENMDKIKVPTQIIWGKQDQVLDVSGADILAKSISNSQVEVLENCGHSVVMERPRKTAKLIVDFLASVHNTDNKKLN

Prolyl endopeptidase (Mus musculus), sequence (Q9QUR6 whole entry, looked up): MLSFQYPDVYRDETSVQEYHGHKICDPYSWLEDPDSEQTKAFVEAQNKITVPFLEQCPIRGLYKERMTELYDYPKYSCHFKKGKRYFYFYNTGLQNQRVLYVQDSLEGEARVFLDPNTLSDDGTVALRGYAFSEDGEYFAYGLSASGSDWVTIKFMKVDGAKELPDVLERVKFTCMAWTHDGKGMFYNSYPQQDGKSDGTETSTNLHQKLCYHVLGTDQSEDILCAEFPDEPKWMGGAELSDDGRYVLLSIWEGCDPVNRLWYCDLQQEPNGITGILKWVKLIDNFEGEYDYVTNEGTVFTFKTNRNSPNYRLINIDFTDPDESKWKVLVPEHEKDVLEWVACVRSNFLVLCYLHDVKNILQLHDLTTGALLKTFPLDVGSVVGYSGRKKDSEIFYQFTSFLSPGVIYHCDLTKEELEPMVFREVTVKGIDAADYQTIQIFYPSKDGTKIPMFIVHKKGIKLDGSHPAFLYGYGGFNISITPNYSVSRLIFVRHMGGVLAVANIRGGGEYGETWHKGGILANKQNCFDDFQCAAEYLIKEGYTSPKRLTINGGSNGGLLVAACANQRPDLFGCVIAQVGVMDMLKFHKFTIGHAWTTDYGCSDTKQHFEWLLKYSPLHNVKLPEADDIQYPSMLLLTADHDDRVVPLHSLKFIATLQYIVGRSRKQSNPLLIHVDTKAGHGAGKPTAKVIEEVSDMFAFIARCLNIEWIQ

SMILES: CC[C@@]1(c2ccc(C)cc2)C(=O)N(C(=O)OC(C)C)N1C(=O)OC(C)C
- IC50 [1]: 2.34 µM
- IC50 [2]: inactive
